PubChem BioAssay (NCI)
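48-hour exposure; five concentrations; linearly interpolated endpoints. Abbreviation: GI50, concentration required for 50% inhibition of growth. TGI denotes the concentration required for complete inhibition of growth.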

Tests used:
Test in all cases: NCI anticancer screen, dose series, 48 h
PC-3 prostate = tested on: PC-3 prostate
SR leukemia = tested on: SR leukemia
A549 NSCLC = tested on: A549 NSCLC
CAKI-1 renal = tested on: CAKI-1 renal
SK-MEL-28 melanoma = tested on: SK-MEL-28 melanoma
MCF7 breast = tested on: MCF7 breast
786-0 renal = tested on: 786-0 renal
KM12 colon = tested on: KM12 colon
SF-295 CNS = tested on: SF-295 CNS
HOP-92 NSCLC = tested on: HOP-92 NSCLC
MDA-MB-231 breast = tested on: MDA-MB-231 breast
MDA-MB-435 = tested on: MDA-MB-435
NCI-H460 lung = tested on: NCI-H460 lung
RXF 393 renal = tested on: RXF 393 renal
NCI-H522 lung = tested on: NCI-H522 lung
NCI-H23 lung = tested on: NCI-H23 lung
A498 renal = tested on: A498 renal
SF-539 CNS = tested on: SF-539 CNS
SNB-19 CNS = tested on: SNB-19 CNS
HCC-2998 colon = tested on: HCC-2998 colon
TK-10 renal = tested on: TK-10 renal
SK-MEL-2 melanoma = tested on: SK-MEL-2 melanoma
HCT-15 colon = tested on: HCT-15 colon
OVCAR-5 ovarian = tested on: OVCAR-5 ovarian
BT-549 breast = tested on: BT-549 breast
SW-620 colon = tested on: SW-620 colon
HCT-116 colon = tested on: HCT-116 colon
SF-268 CNS = tested on: SF-268 CNS
K-562 leukemia = tested on: K-562 leukemia
EKVX NSCLC = tested on: EKVX NSCLC
SN12C renal = tested on: SN12C renal
OVCAR-4 ovarian = tested on: OVCAR-4 ovarian
SK-MEL-5 melanoma = tested on: SK-MEL-5 melanoma
OVCAR-3 ovarian = tested on: OVCAR-3 ovarian
M14 melanoma = tested on: M14 melanoma
LOX IMVI melanoma = tested on: LOX IMVI melanoma
OVCAR-8 ovarian = tested on: OVCAR-8 ovarian
MOLT-4 leukemia = tested on: MOLT-4 leukemia
UACC-62 melanoma = tested on: UACC-62 melanoma
SK-OV-3 ovarian = tested on: SK-OV-3 ovarian
NCI/ADR-RES ovarian = tested on: NCI/ADR-RES ovarian
U251 CNS = tested on: U251 CNS
HOP-62 NSCLC = tested on: HOP-62 NSCLC
MALME-3M melanoma = tested on: MALME-3M melanoma
IGROV1 ovarian = tested on: IGROV1 ovarian
HL-60(TB) leukemia = tested on: HL-60(TB) leukemia
T-47D breast = tested on: T-47D breast
DU-145 prostate = tested on: DU-145 prostate
RPMI-8226 leukemia = tested on: RPMI-8226 leukemia
COLO 205 colon = tested on: COLO 205 colon
SNB-75 CNS = tested on: SNB-75 CNS
UACC-257 melanoma = tested on: UACC-257 melanoma
CCRF-CEM leukemia = tested on: CCRF-CEM leukemia
HT29 colon = tested on: HT29 colon
ACHN renal = tested on: ACHN renal
NCI-H226 lung = tested on: NCI-H226 lung
UO-31 renal = tested on: UO-31 renal
HS 578T breast = tested on: HS 578T breast

How did the GI50 (PC-3 prostate) turn out when `O=C1/C=C/[C@@H](O)[C@@H]2C[C@@H](O)C[C@H]2/C=C/CCC[C@H](CCc2ccccc2)O1` was run?
Its GI50 is 44.4 nM.

And the TGI (PC-3 prostate)?
Its TGI is 24800 nM.

What about the GI50 (SR leukemia) of the same molecule?
The GI50 was 35 nM.

What about the GI50 (A549 NSCLC) of the same molecule?
The GI50 was 40.8 nM.

And the TGI (A549 NSCLC)?
The TGI was over 100000 nM.

What about the GI50 (CAKI-1 renal) of the same molecule?
Its GI50 is 36.1 nM.

And the TGI (CAKI-1 renal)?
The TGI was 3650 nM.

What about the GI50 (SK-MEL-28 melanoma) of the same molecule?
Its GI50 is under 10 nM.

What about the TGI (SK-MEL-28 melanoma) of the same molecule?
The TGI was 45.6 nM.

And the GI50 (MCF7 breast)?
Its GI50 is 23.4 nM.

And the TGI (MCF7 breast)?
Its TGI is 55.1 nM.

And the GI50 (786-0 renal)?
Its GI50 is 12.5 nM.

And the TGI (786-0 renal)?
Its TGI is 45.3 nM.

What about the GI50 (KM12 colon) of the same molecule?
The GI50 was under 10 nM.

And the TGI (KM12 colon)?
The TGI was 26.3 nM.

And the GI50 (SF-295 CNS)?
Its GI50 is 38 nM.

And the TGI (SF-295 CNS)?
Its TGI is over 50000 nM.

What about the GI50 (HOP-92 NSCLC) of the same molecule?
The GI50 was 31 nM.

What about the TGI (HOP-92 NSCLC) of the same molecule?
Its TGI is 396 nM.

What about the GI50 (MDA-MB-231 breast) of the same molecule?
The GI50 was 20.4 nM.

What about the TGI (MDA-MB-231 breast) of the same molecule?
The TGI was 42.7 nM.

And the GI50 (MDA-MB-435)?
Its GI50 is 36.5 nM.

And the TGI (MDA-MB-435)?
The TGI was 14000 nM.

And the GI50 (NCI-H460 lung)?
The GI50 was 38.9 nM.

What about the TGI (NCI-H460 lung) of the same molecule?
The TGI was 15700 nM.

What about the GI50 (RXF 393 renal) of the same molecule?
The GI50 was under 10 nM.

And the TGI (RXF 393 renal)?
Its TGI is under 21.2 nM.

And the GI50 (NCI-H522 lung)?
Its GI50 is 41.2 nM.

And the TGI (NCI-H522 lung)?
The TGI was 200 nM.

And the GI50 (NCI-H23 lung)?
Its GI50 is 33.4 nM.

And the TGI (NCI-H23 lung)?
The TGI was 285 nM.

What about the GI50 (A498 renal) of the same molecule?
Its GI50 is under 11.8 nM.

What about the TGI (A498 renal) of the same molecule?
Its TGI is 40.9 nM.

What about the GI50 (SF-539 CNS) of the same molecule?
Its GI50 is 53.2 nM.

And the TGI (SF-539 CNS)?
Its TGI is over 66500 nM.

And the GI50 (SNB-19 CNS)?
The GI50 was 51.4 nM.

And the TGI (SNB-19 CNS)?
The TGI was over 88100 nM.

And the GI50 (HCC-2998 colon)?
Its GI50 is 29.6 nM.

And the TGI (HCC-2998 colon)?
Its TGI is 994 nM.

What about the GI50 (TK-10 renal) of the same molecule?
The GI50 was 34.8 nM.

What about the TGI (TK-10 renal) of the same molecule?
Its TGI is 206 nM.

And the GI50 (SK-MEL-2 melanoma)?
Its GI50 is 31.8 nM.

What about the TGI (SK-MEL-2 melanoma) of the same molecule?
Its TGI is 100 nM.

What about the GI50 (HCT-15 colon) of the same molecule?
The GI50 was 34.3 nM.

And the TGI (HCT-15 colon)?
The TGI was 13000 nM.

And the GI50 (OVCAR-5 ovarian)?
Its GI50 is 57.3 nM.

What about the TGI (OVCAR-5 ovarian) of the same molecule?
Its TGI is over 100000 nM.

What about the GI50 (BT-549 breast) of the same molecule?
The GI50 was 48.5 nM.

What about the TGI (BT-549 breast) of the same molecule?
Its TGI is 14300 nM.

What about the GI50 (SW-620 colon) of the same molecule?
Its GI50 is 28.7 nM.

And the TGI (SW-620 colon)?
The TGI was 84.7 nM.

And the GI50 (HCT-116 colon)?
Its GI50 is 23.1 nM.

What about the TGI (HCT-116 colon) of the same molecule?
The TGI was 54.9 nM.

And the GI50 (SF-268 CNS)?
Its GI50 is 22.9 nM.

And the TGI (SF-268 CNS)?
Its TGI is 7380 nM.

What about the GI50 (K-562 leukemia) of the same molecule?
Its GI50 is 38.4 nM.

What about the TGI (K-562 leukemia) of the same molecule?
Its TGI is 22700 nM.

What about the GI50 (EKVX NSCLC) of the same molecule?
Its GI50 is 36.9 nM.

And the TGI (EKVX NSCLC)?
Its TGI is 14600 nM.

What about the GI50 (SN12C renal) of the same molecule?
Its GI50 is 37.3 nM.

And the TGI (SN12C renal)?
Its TGI is 14100 nM.

What about the GI50 (OVCAR-4 ovarian) of the same molecule?
Its GI50 is 37.3 nM.

What about the TGI (OVCAR-4 ovarian) of the same molecule?
Its TGI is 9480 nM.

What about the GI50 (SK-MEL-5 melanoma) of the same molecule?
The GI50 was under 10 nM.

And the TGI (SK-MEL-5 melanoma)?
The TGI was 16.8 nM.

What about the GI50 (OVCAR-3 ovarian) of the same molecule?
The GI50 was 25.4 nM.

And the TGI (OVCAR-3 ovarian)?
Its TGI is 61.1 nM.

What about the GI50 (M14 melanoma) of the same molecule?
The GI50 was 26.4 nM.

What about the TGI (M14 melanoma) of the same molecule?
The TGI was 10700 nM.

What about the GI50 (LOX IMVI melanoma) of the same molecule?
Its GI50 is 21.1 nM.

What about the TGI (LOX IMVI melanoma) of the same molecule?
The TGI was 48 nM.

And the GI50 (OVCAR-8 ovarian)?
Its GI50 is 29.4 nM.

What about the TGI (OVCAR-8 ovarian) of the same molecule?
The TGI was 12700 nM.

And the GI50 (MOLT-4 leukemia)?
Its GI50 is 36 nM.

And the GI50 (UACC-62 melanoma)?
Its GI50 is 46.7 nM.

What about the TGI (UACC-62 melanoma) of the same molecule?
Its TGI is 9000 nM.

What about the GI50 (SK-OV-3 ovarian) of the same molecule?
Its GI50 is 34.3 nM.

What about the TGI (SK-OV-3 ovarian) of the same molecule?
The TGI was 27000 nM.

And the GI50 (NCI/ADR-RES ovarian)?
Its GI50 is 28.9 nM.

And the TGI (NCI/ADR-RES ovarian)?
The TGI was 823 nM.

And the GI50 (U251 CNS)?
Its GI50 is 40.6 nM.

And the TGI (U251 CNS)?
The TGI was 30100 nM.

And the GI50 (HOP-62 NSCLC)?
The GI50 was 37.1 nM.

What about the TGI (HOP-62 NSCLC) of the same molecule?
Its TGI is 20500 nM.

And the GI50 (MALME-3M melanoma)?
Its GI50 is 23.1 nM.

And the TGI (MALME-3M melanoma)?
Its TGI is 85.4 nM.

And the GI50 (IGROV1 ovarian)?
The GI50 was 40.2 nM.

What about the TGI (IGROV1 ovarian) of the same molecule?
The TGI was 13200 nM.

What about the GI50 (HL-60(TB) leukemia) of the same molecule?
Its GI50 is 30.7 nM.

And the TGI (HL-60(TB) leukemia)?
Its TGI is 128 nM.

And the GI50 (T-47D breast)?
Its GI50 is 48.3 nM.

What about the TGI (T-47D breast) of the same molecule?
The TGI was 30700 nM.

And the GI50 (DU-145 prostate)?
The GI50 was 49.9 nM.

What about the TGI (DU-145 prostate) of the same molecule?
Its TGI is over 100000 nM.

What about the GI50 (RPMI-8226 leukemia) of the same molecule?
The GI50 was 41.4 nM.

And the TGI (RPMI-8226 leukemia)?
The TGI was 5310 nM.

What about the GI50 (COLO 205 colon) of the same molecule?
Its GI50 is 19.7 nM.

What about the TGI (COLO 205 colon) of the same molecule?
Its TGI is 36.9 nM.

And the GI50 (SNB-75 CNS)?
Its GI50 is under 12.4 nM.

And the TGI (SNB-75 CNS)?
The TGI was 33800 nM.

What about the GI50 (UACC-257 melanoma) of the same molecule?
The GI50 was 37.5 nM.

And the TGI (UACC-257 melanoma)?
The TGI was 21700 nM.

What about the GI50 (CCRF-CEM leukemia) of the same molecule?
The GI50 was 39.1 nM.

And the TGI (CCRF-CEM leukemia)?
Its TGI is over 59400 nM.

And the GI50 (HT29 colon)?
Its GI50 is 31.5 nM.

And the TGI (HT29 colon)?
Its TGI is 470 nM.

What about the GI50 (ACHN renal) of the same molecule?
The GI50 was 37.1 nM.

What about the TGI (ACHN renal) of the same molecule?
The TGI was over 100000 nM.

What about the GI50 (NCI-H226 lung) of the same molecule?
The GI50 was 17.9 nM.

What about the TGI (NCI-H226 lung) of the same molecule?
Its TGI is 74.8 nM.

What about the GI50 (UO-31 renal) of the same molecule?
Its GI50 is 31.7 nM.

What about the TGI (UO-31 renal) of the same molecule?
The TGI was 13400 nM.

And the GI50 (HS 578T breast)?
The GI50 was under 10 nM.

And the TGI (HS 578T breast)?
Its TGI is 21700 nM.
